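96-well plates; 48 h exposure; 5 concentrations. Endpoints by linear interpolation between flanking doses. Not reached: highest tested concentration assigned. GI50 is the concentration that inhibits growth by half. The concentration for full growth arrest is given as TGI.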
Tests used:
Test in all cases: NCI-60 cell line screen, 48 h
OVCAR-8 ovarian = tested on: OVCAR-8 ovarian
RPMI-8226 leukemia = tested on: RPMI-8226 leukemia
EKVX NSCLC = tested on: EKVX NSCLC
MDA-MB-435 = tested on: MDA-MB-435
SW-620 colon = tested on: SW-620 colon
786-0 renal = tested on: 786-0 renal
U251 CNS = tested on: U251 CNS
SNB-75 CNS = tested on: SNB-75 CNS
SK-MEL-28 melanoma = tested on: SK-MEL-28 melanoma
A498 renal = tested on: A498 renal
M14 melanoma = tested on: M14 melanoma
HL-60(TB) leukemia = tested on: HL-60(TB) leukemia
SK-OV-3 ovarian = tested on: SK-OV-3 ovarian
NCI/ADR-RES ovarian = tested on: NCI/ADR-RES ovarian
NCI-H23 lung = tested on: NCI-H23 lung
IGROV1 ovarian = tested on: IGROV1 ovarian
HCT-15 colon = tested on: HCT-15 colon
HS 578T breast = tested on: HS 578T breast
HCT-116 colon = tested on: HCT-116 colon
MDA-MB-231 breast = tested on: MDA-MB-231 breast
ACHN renal = tested on: ACHN renal
SR leukemia = tested on: SR leukemia
OVCAR-3 ovarian = tested on: OVCAR-3 ovarian
SN12C renal = tested on: SN12C renal
UACC-62 melanoma = tested on: UACC-62 melanoma
T-47D breast = tested on: T-47D breast
BT-549 breast = tested on: BT-549 breast
MOLT-4 leukemia = tested on: MOLT-4 leukemia
UACC-257 melanoma = tested on: UACC-257 melanoma
MALME-3M melanoma = tested on: MALME-3M melanoma
TK-10 renal = tested on: TK-10 renal
HOP-62 NSCLC = tested on: HOP-62 NSCLC
UO-31 renal = tested on: UO-31 renal
HT29 colon = tested on: HT29 colon
A549 NSCLC = tested on: A549 NSCLC
SF-268 CNS = tested on: SF-268 CNS
CAKI-1 renal = tested on: CAKI-1 renal
KM12 colon = tested on: KM12 colon
NCI-H522 lung = tested on: NCI-H522 lung
SK-MEL-2 melanoma = tested on: SK-MEL-2 melanoma
DU-145 prostate = tested on: DU-145 prostate
CCRF-CEM leukemia = tested on: CCRF-CEM leukemia
PC-3 prostate = tested on: PC-3 prostate
MCF7 breast = tested on: MCF7 breast
LOX IMVI melanoma = tested on: LOX IMVI melanoma
COLO 205 colon = tested on: COLO 205 colon
NCI-H226 lung = tested on: NCI-H226 lung
SF-295 CNS = tested on: SF-295 CNS
OVCAR-4 ovarian = tested on: OVCAR-4 ovarian
K-562 leukemia = tested on: K-562 leukemia
OVCAR-5 ovarian = tested on: OVCAR-5 ovarian
SK-MEL-5 melanoma = tested on: SK-MEL-5 melanoma
SNB-19 CNS = tested on: SNB-19 CNS
HOP-92 NSCLC = tested on: HOP-92 NSCLC
RXF 393 renal = tested on: RXF 393 renal
HCC-2998 colon = tested on: HCC-2998 colon
SF-539 CNS = tested on: SF-539 CNS
NCI-H460 lung = tested on: NCI-H460 lung

Structure (SMILES): C[C@H]1COCCN1c1cc(C2(S(=O)(=O)C3CC3)CC2)nc(-c2ccc(NC(=S)NCCO)cc2)n1
- GI50 (OVCAR-8 ovarian): 51.1 nM
- TGI (OVCAR-8 ovarian): 3.06 µM
- GI50 (RPMI-8226 leukemia): < 12.5 nM
- TGI (RPMI-8226 leukemia): 1860 nM
- GI50 (EKVX NSCLC): 26.7 nM
- TGI (EKVX NSCLC): 3.76 µM
- GI50 (MDA-MB-435): 24.4 nM
- TGI (MDA-MB-435): 1190 nM
- GI50 (SW-620 colon): 63.4 nM
- TGI (SW-620 colon): > 100 µM
- GI50 (786-0 renal): 38.2 nM
- TGI (786-0 renal): 3.49 µM
- GI50 (U251 CNS): 52.4 nM
- TGI (U251 CNS): 32.2 µM
- GI50 (SNB-75 CNS): < 10 nM
- TGI (SNB-75 CNS): 86.5 nM
- GI50 (SK-MEL-28 melanoma): < 10 nM
- TGI (SK-MEL-28 melanoma): 1100 nM
- GI50 (A498 renal): < 10 nM
- TGI (A498 renal): < 13.5 nM
- GI50 (M14 melanoma): 28.7 nM
- TGI (M14 melanoma): 10.1 µM
- GI50 (HL-60(TB) leukemia): 702 nM
- TGI (HL-60(TB) leukemia): 28.6 µM
- GI50 (SK-OV-3 ovarian): < 10 nM
- TGI (SK-OV-3 ovarian): 55.6 nM
- GI50 (NCI/ADR-RES ovarian): 1930 nM
- TGI (NCI/ADR-RES ovarian): 47.8 µM
- GI50 (NCI-H23 lung): 36 nM
- TGI (NCI-H23 lung): 30.6 µM
- GI50 (IGROV1 ovarian): < 10 nM
- TGI (IGROV1 ovarian): 119 nM
- GI50 (HCT-15 colon): 170 nM
- TGI (HCT-15 colon): > 100 µM
- GI50 (HS 578T breast): 10.9 nM
- TGI (HS 578T breast): 64.3 nM
- GI50 (HCT-116 colon): 98.5 nM
- TGI (HCT-116 colon): 21.4 µM
- GI50 (MDA-MB-231 breast): 32.7 nM
- TGI (MDA-MB-231 breast): 26.2 µM
- GI50 (ACHN renal): 70.5 nM
- TGI (ACHN renal): > 100 µM
- GI50 (SR leukemia): 29.6 nM
- TGI (SR leukemia): > 58.2 µM
- GI50 (OVCAR-3 ovarian): 22 nM
- TGI (OVCAR-3 ovarian): 11.7 µM
- GI50 (SN12C renal): 26.3 nM
- TGI (SN12C renal): 61.2 µM
- GI50 (UACC-62 melanoma): < 10 nM
- TGI (UACC-62 melanoma): 88.3 nM
- GI50 (T-47D breast): < 10 nM
- TGI (T-47D breast): 22.4 nM
- GI50 (BT-549 breast): < 12 nM
- TGI (BT-549 breast): 134 nM
- GI50 (MOLT-4 leukemia): 46.7 nM
- TGI (MOLT-4 leukemia): > 37.8 µM
- GI50 (UACC-257 melanoma): 18.7 nM
- TGI (UACC-257 melanoma): 320 nM
- GI50 (MALME-3M melanoma): < 10 nM
- TGI (MALME-3M melanoma): 43.7 nM
- GI50 (TK-10 renal): 14.8 nM
- TGI (TK-10 renal): 274 nM
- GI50 (HOP-62 NSCLC): 48.6 nM
- TGI (HOP-62 NSCLC): 4.37 µM
- GI50 (UO-31 renal): 27.2 nM
- TGI (UO-31 renal): 524 nM
- GI50 (HT29 colon): 64.8 nM
- TGI (HT29 colon): > 60.4 µM
- GI50 (A549 NSCLC): 78.2 nM
- TGI (A549 NSCLC): 4.35 µM
- GI50 (SF-268 CNS): 33.2 nM
- TGI (SF-268 CNS): > 41.3 µM
- GI50 (CAKI-1 renal): 139 nM
- TGI (CAKI-1 renal): 10.2 µM
- GI50 (KM12 colon): 49.4 nM
- TGI (KM12 colon): > 100 µM
- GI50 (NCI-H522 lung): 21.5 nM
- TGI (NCI-H522 lung): 64.8 µM
- GI50 (SK-MEL-2 melanoma): 28.9 nM
- TGI (SK-MEL-2 melanoma): 517 nM
- GI50 (DU-145 prostate): 91.9 nM
- TGI (DU-145 prostate): > 100 µM
- GI50 (CCRF-CEM leukemia): 32.3 nM
- TGI (CCRF-CEM leukemia): > 100 µM
- GI50 (PC-3 prostate): < 13 nM
- TGI (PC-3 prostate): 38.7 µM
- GI50 (MCF7 breast): < 10 nM
- TGI (MCF7 breast): 18 µM
- GI50 (LOX IMVI melanoma): 30.6 nM
- TGI (LOX IMVI melanoma): 12.3 µM
- GI50 (COLO 205 colon): 17.2 nM
- TGI (COLO 205 colon): 10.4 µM
- GI50 (NCI-H226 lung): 23.7 nM
- TGI (NCI-H226 lung): 1340 nM
- GI50 (SF-295 CNS): 19.4 nM
- TGI (SF-295 CNS): 228 nM
- GI50 (OVCAR-4 ovarian): 15.9 nM
- TGI (OVCAR-4 ovarian): 233 nM
- GI50 (K-562 leukemia): 49.8 nM
- TGI (K-562 leukemia): > 100 µM
- GI50 (OVCAR-5 ovarian): 40.5 nM
- TGI (OVCAR-5 ovarian): > 100 µM
- GI50 (SK-MEL-5 melanoma): 15.1 nM
- TGI (SK-MEL-5 melanoma): 147 nM
- GI50 (SNB-19 CNS): 61 nM
- TGI (SNB-19 CNS): 11.5 µM
- GI50 (HOP-92 NSCLC): < 10 nM
- TGI (HOP-92 NSCLC): 60.7 nM
- GI50 (RXF 393 renal): < 11.2 nM
- TGI (RXF 393 renal): 68.9 nM
- GI50 (HCC-2998 colon): 35 nM
- TGI (HCC-2998 colon): > 70.3 µM
- GI50 (SF-539 CNS): 29.2 nM
- TGI (SF-539 CNS): 347 nM
- GI50 (NCI-H460 lung): 20 nM
- TGI (NCI-H460 lung): > 100 µM

— PubChem BioAssay (NCI)
